These results are taken from patent US9518065B2, “IRAK inhibitors and uses thereof” (NIMBUS IRIS, INC., priority 2013, dated 2016).

Like-named read-outs stand apart in the source and are kept apart here. Bounds are passed on as bounds.

One may read the IC50 as the point on the concentration scale where inhibition reaches its midpoint.

For series [1], the system named is LPS induced TNF production. Put plainly: In vivo LPS-induced cytokine production in rats. Details: species or system female Lewis rats. Particulars: for drug concentration corresponding to the minimal efficacious dose: 10 mg/kg PO; for minimal efficacious dose for inhibition of LPS induced TNF production in vivo: PO in 0.5% methylcellulose, LPS 2 hours after dose, serum TNF-α one hour later. The procedure:
Compounds of the present invention were also assayed in vivo to determine their inhibitory effect on LPS-induced cytokine production. In vivo studies of LPS-induced cytokine production was conducted in female Lewis rats (n=10 each). Rats were dosed with compound at 30, 10, 3, or 1 mg/kg, 5 mg/kg dexamethasone, or vehicle, dosed PO in 0.5% methylcellulose. After 2 hours, rats were administered LPS in PBS at 0.1 mg/mL, 1 mL/kg. One hour later, rats were bled and serum was analyzed for TNF-α produced by ELISA (eBioscience).

Series [2] deals with cytokine production in human white blood cells (hWBC). Briefly: In vitro LPS/R848/CpG-induced cytokine production assay in hWBC. The class given is cell-based. The settings on record: WBC. The procedure:
Compounds of the present invention were also studied in in vitro LPS/R848/CpG-induced cytokine production assays. Exemplary protocols follow.
Whole Blood (LPS): 13 mL of whole blood solution was prepared by combining whole blood in no serum medium with a ratio of 1:1. Cells were seeded in a 96-well plate with 130 ul/well of the cell suspension according to the plate map. 9 ul of 30 mM compound solution was added into the wells in the assigned rows, then serial solutions with 4× dilutions were made. That is, add 9 uL of 100% DMSO into each of the rest wells and take 3 uL of compound solution from the one-step higher concentration solution and mix well with the DMSO. For the second compound master plate, 196 uL of the growth medium (no serum media) were added into each of the wells and 4 uL of the compound solution from the first compound master plate was added and mixed with the media. Cells were treated for 0.5 h by adding 20 uL of the compound and the control solutions prepared in the second master plate to each well according to the plate map. Cells were stimulated with a) 0.1 ug/mL of LPS overnight for whole blood assay; b) 0.01 ug/mL of LPS overnight for hWBC assay. Plates were sealed with sealing films and the plates were centrifuged at 3000 rpm at 4 degrees C. for 5 min. The supernatants were transferred, and 100 ul of working Capture antibody solution was added to each well. The plates were sealed and incubated overnight at RT. IL-6, IFN-α or TNF-α detection antibody labeled with biotin: Added 100 uL of the Detection Antibody solution to each well. Covered the plate and incubated for 2 h at RT. Added 100 uL of Streptavidin-HRP solution to each well. Covered the plate and incubate for 20 min at RT in dark. Added 100 uL of Substrate Solution to each well. Incubated for 20 min at RT in dark. Added 50 uL of Stop Solution to each well. Gently tapped the plate to ensure thorough mixing. Determined the optical density of each well immediately, using a microplate reader set to 450 nm and also read at 540 nm or 570 nm for correction if wavelength correction is not available.

Where [3] appears, read: Homo sapiens, CPG 0.5 uM, overnight, read-out: IFN-α production IC50.
Where [4] appears, read: Homo sapiens, LPS 0.1 uM, overnight, read-out: TNF-α production IC50.
Where [5] appears, read: Homo sapiens, R848 1 uM, 5 h, read-out: TNF-α production IC50.

Regarding `CCc1nc2c(N[C@H]3CC[C@H](N4CCOCC4)CC3)nc(Nc3cnn(C)c3)nc2s1` [Compound I-7, 2-ethyl-N5-(1-methyl-1H-pyrazol-4-yl)-N7-((1r,4r)-4-morpholinocyclohexyl)-thiazolo[5,4-d]pyrimidine-5,7-diamine], the “drug concentration corresponding to the minimal efficacious dose” value (“drug concentration corresponding” for short) in series [1] was found to be 1600 nM. The “minimal efficacious dose for inhibition of LPS induced TNF production in vivo” value (“minimal efficacious dose for inhibition” for short) in series [1] came to 10 mg/kg. In addition, the IC50 is ≤ 250 nM in series [2] (setting [3]), 250 to 1000 nM in series [2] (setting [4]) and 250 to 1000 nM in series [2] (setting [5]).
In the case of “2-methyl-N5-(1-methyl-1H-pyrazol-4-yl)-N7-((1r,4r)-4-morpholinocyclohexyl)thiazolo[5,4-d]pyrimidine-5,7-diamine [Compound I-24]”, the “drug concentration corresponding” value in series [1] turned out to be 6600 nM. The “minimal efficacious dose for inhibition” value in series [1] turned out to be 10 mg/kg. The IC50 is ≤ 250 nM in series [2] (CPG 0.5 uM, overnight, read-out: IFN-α production IC50); ≤ 250 nM in series [2] (LPS 0.1 uM, overnight, read-out: TNF-α production IC50); ≤ 250 nM in series [2] (R848 1 uM, 5 h, read-out: TNF-α production IC50).
For `CCc1nc2c(N[C@H]3CC[C@H](N4CCOCC4)CC3)nc(Nc3cnn(C4CCOCC4)c3)nc2s1` [Compound I-9, 2-ethyl-5-N-[1-(oxan-4-yl)-1H-pyrazol-4-yl]-7-N—[trans-4-(morpholin-4-yl)cyclohexyl]-[1,3]thiazolo[5,4-d]pyrimidine-5,7-diamine], the “drug concentration corresponding” value in series [1] stood at 1050 nM. For the same molecule, in series [1], the “minimal efficacious dose for inhibition” value is on record as 10 mg/kg. Further, the IC50 in series [2] (setting [3]), in series [2] (setting [4]) and in series [2] (setting [5]) was ≤ 250 nM throughout.
